Values of other authors, collected in patent US20120239131A1, “METHODS AND APPARATUS FOR TREATMENT OF ANEURYSMAL TISSUE” (Medtronic Vascular, Inc., priority 2011, published 2012).

What was measured:
[1] = cited from earlier work
[2] = cited from earlier work; remark: listed apart in the source

| SMILES | Water solubility [1] | Half-life in the plasma ([2]; in vivo) | Bioavailability ([2]; given orally) |
| --- | --- | --- | --- |
| COCCCOc1cc(C[C@@H](C[C@H](N)[C@@H](O)C[C@H](C(=O)NCC(C)(C)C(N)=O)C(C)C)C(C)C)ccc1OC [Aliskiren] | good water solubility | approximately 24 hours | – |
| C[C@H](CS)C(=O)N1CCC[C@H]1C(=O)O [Captopril, captopril] | – | – | about 75% |
